IC50 data for four molecules are collected here from ChEMBL document CHEMBL1151880, “Cytotoxicity and structure-activity relationships of four alpha-N-heterocyclic thiosemicarbazone derivatives crystal structure of 2-acetylpyrazine thiosemicarbazone” (Bioorg Med Chem Lett, 2009).

The subject of one test is K562. Kind of test: Antitumor activity against human K562 cells assessed as induction of cell death after 48 hrs by MTT assay. Type of test: functional, cell-based. The settings on record: K562, 48 h. Background: Tetrazolium dyes change colour on reduction, which living cells bring about.
The subject of a further test is Bel-7402. Kind of test: Antitumor activity against human Bel7402 cells assessed as induction of cell death after 48 hrs by MTT assay. Type of test: functional, cell-based. The settings on record: Bel-7402, 48 h.

A word on the IC50: it is the concentration that gives 50% inhibition. On to `C/N=C(\S)N/N=C(\C)c1cnccn1`, for which the IC50 in the test on K562 stood at 25.9 µM; in the test with Bel-7402, 462 µM.
For `C/C(=N\N=C(\N)S)c1cnccn1` the same measures were 47.5 µM and 238 µM.
On to `NC(=S)N/N=C(\c1ccccc1)c1ccccn1`, for which the 50% inhibitory concentration (IC50) with K562 was 28.2 µM; in the test with Bel-7402, 376 µM.
For `CNC(=S)N/N=C(\c1ccccc1)c1ccccn1` the same measures were 0.002 µM and 0.138 µM.
